From patent US6664279B2, “Remedies or preventives for liver diseases containing diaminotrifluoromethylpyridine derivatives” (Ishihara Sangyo Kaisha, Ltd., priority 2000, dated 2003)

Key:
[1] = system: acetaminophen (APAP) induced mouse hepatopathy model; experiment: Therapeutic effect on mouse acetaminophen hepatopathy model; assay type: in vivo
Description: Therapeutic Effect on Mouse Acetaminophen Hepatopathy Model
The therapeutic effect of N-(2-ethylsulfonylamino-5-trifluoromethyl-3-pyridyl)cyclohexanecarboxamide sodium salt hydrate (hereinafter referred to as compound 1) on acetaminophen (APAP) induced mouse hepatopathy model was examined.
To Crj: CD-1(ICR) male mice (6 weeks old) (Charles River Japan Inc.), APAP (Lot. No. 107H0332, manufactured by Sigma) dissolved with physiological saline (Lot No. 80909D manufactured by Fuso Pharmaceutical Industries, Ltd.) was intraperitoneally administered in an amount of the active ingredient of 300 mg/kg to induce hepatopathy. 3 Hours after the administration of APAP, the compound 1 dissolved in physiological saline was singly administered subcutaneously on the back in an amount of the active ingredient of 10 mg/kg. To non-treated group mice, physiological saline was similarly administered. 6 Hours after the administration of APAP, the blood was collected, and glutamic-oxaloacetic transaminase (GOT) and glutamic-pyruvic transaminase (GPT) values in the blood serum were measured.
In the present test, mice were kept on a fast from 20 hours before the administration of APAP until the completion of the test.

[2] = system: rat liver ischemia reperfusion hepatopathy model; experiment: Therapeutic effect on rat liver ischemia reperfusion hepatopathy model; assay type: in vivo
Description: Therapeutic Effect on Rat Liver Ischemia Reperfusion Hepatopathy Model
The therapeutic effect of the compound 1 on rat hepatopathy model induced by partially subjecting the liver to ischemia reperfusion was examined.
(1) The compound 1 was used as a drug formulation. The formulation composition (content per one vial) was as follows.
(2) Crj:SD (IGS) male rats (7 weeks old) (Charles River Japan, Inc.) were anesthetized with ether, and while maintaining them anesthetized with gas-oxygen fluothane, the above drug formulation of the compound 1 diluted with 5% glucose (Lot. 9I78N, manufactured by Otsuka Pharmaceutical Factory, Inc.) so that the dose would be 10 mg/kg/hr as calculated as anhydride of the compound 1, was subcutaneously administered singly. Then, an osmotic pump (alzet osmotic pump 2001D, ALZA CORPORATION, U.S.A.) in which the above drug formulation of the compound 1 diluted with 5% glucose (Lot. 9I78N, manufactured by Otsuka Pharmaceutical Factory, Inc.) so that the dose would be 0.3 mg/kg/hr as calculated as anhydride of the compound 1 was put, was embedded in the dorsal cervical subcutaneous. To non-treated group rats, 5% glucose alone was administered similarly. […] The abdomen was closed, the rats were awaked, and after 90 minutes, the abdomen was opened up again under the above-described anesthesia, the clamp was removed and the rats were subjected to reperfusion. To pseudo-induced group rats, operation except for the ischemia reperfusion treatment was carried out. The abdomen was closed and the rats were awaked, and 6 hours after the reperfusion, aspartate aminotransferase (AST) and alanine aminotransferase (ALT), lactate dehydrogenase (LDH) and total bilirubin values in the blood serum were measured.

[3] = Crj:CD-1(ICR) male mice, APAP 300 mg/kg i.p., 10 mg/kg s.c. single dose 3 hours after APAP, blood 6 hours after APAP, N = 5
[4] = Crj:SD (IGS) male rats, 90 minutes ischemia of about 70% of liver, 10 mg/kg/hr s.c. singly then 0.3 mg/kg/hr by osmotic pump, 6 hours after reperfusion, N = 10

## CCS(=O)(=O)Nc1ncc(C(F)(F)F)cc1NC(=O)C1CCCCC1.O.[Na] [compound 1, N-(2-ethylsulfonylamino-5-trifluoromethyl-3-pyridyl)cyclohexanecarboxamide sodium salt hydrate]
[1]; [3]
  GOT in blood serum (mean ± standard deviation): 530 ± 212 IU/L
  GPT in blood serum (mean ± standard deviation): 807 ± 603 IU/L
[1]; acetaminophen induced mouse hepatopathy model, 10 mg/kg s.c., versus non-treated group
  Effect on hepatopathy (increases in biochemical examination values), in words: hepatopathy was alleviated
[2]; [4]
  ALT (GPT) in blood serum (mean): 5436 IU/L
  AST (GOT) in blood serum (mean): 8669 IU/L
  LDH in blood serum (mean): 29601 IU/L
  Total bilirubin in blood serum (mean): 0.299 mg/dL
[2]; rat ischemia reperfusion hepatopathy model, versus non-treated group
  Effect on hepatopathy (increases in biochemical examination values), in words: alleviated
